Source: patent US6737383B1, “Herbicidal oxadiazolidines” (priority 1999, dated 2004)

Key:
[1] = tested on: bamyardgrass; assay: Test B flood test barnyardgrass; format: in vivo, Echinochloa crus-galli; settings: for Barnyardgrass plant response rating / Plant response rating, Barnyardgrass (0 to 10 scale, 0 is no effect, 10 is complete control): Pre-emergence; for Plant response rating, Barnyardgrass (0 to 10 scale, 0 is no effect, 10 is complete control): Rate 62 g/ha
Procedure, shortened: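 Read-out is a visual response score from 0 (no effect) to 10 (complete control), assigned by comparison with untreated controls. Treatment was applied at the 2-leaf stage, and plants stayed in the greenhouse for twelve to sixteen days before scoring.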

[2] = tested on: bedstraw; assay: Test B pre/postemergence bedstraw; format: in vivo, Galium aparine; settings: for Bedstraw plant response rating: scale of 0 to 10 where 0 is no effect and 10 is complete control
Procedure, shortened: (§1)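 Response is a visual 0-to-10 score relative to untreated plants, where 0 means no effect and 10 means complete control, taken twelve to sixteen days after application. Treatments went onto soil at planting and onto foliage of 1- to 4-leaf plants, using a surfactant-containing non-phytotoxic solvent.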

[3] = tested on: wild oat; assay: Test B pre/postemergence wild oat; format: in vivo, Avena fatua
Procedure, shortened: as §1

[4] = tested on: soybean; assay: Test B pre/postemergence soybean; format: in vivo, Glycine max
Procedure, shortened: as §1

[5] = Rate 125 g/ha, flood test species, scale 0 to 10 where 0 is no effect and 10 is complete control
[6] = Rate 250 g/ha, flood-test species, scale 0 to 10, 0 is no effect, 10 is complete control
[7] = Rate 500 g/ha, flood test species, scale 0 to 10 (0 no effect, 10 complete control)
[8] = Rate 1000 g/ha, Preemergence, scale 0 to 10 (0 no effect, 10 complete control)
[9] = Postemergence, Rate 125 g/ha, scale 0 to 10, 0 is no effect, 10 is complete control
[10] = Postemergence, Rate 250 g/ha, scale 0 to 10, 0 is no effect, 10 is complete control
[11] = Postemergence, Rate 1000 g/ha, scale 0 to 10 (0 no effect, 10 complete control)
[12] = Preemergence, Rate 250 g/ha, scale of 0 to 10 where 0 is no effect and 10 is complete control
[13] = Preemergence, Rate 500 g/ha, scale of 0 to 10 where 0 is no effect and 10 is complete control
[14] = Rate 500 g/ha, Postemergence, scale 0 to 10, 0 no effect, 10 complete control
[15] = flood test species, visual evaluation after twelve to sixteen days
[16] = Preemergence, Rate 62 g/ha, scale 0 to 10 (0 no effect, 10 complete control)
[17] = Rate 62 g/ha, Postemergence, scale of 0 to 10 where 0 is no effect and 10 is complete control

| SMILES | Barnyardgrass plant response rating [1, 5] | Barnyardgrass plant response rating [1, 6] | Barnyardgrass plant response rating [1, 7] | Bedstraw plant response rating (0 to 10 scale) ([2]; Preemergence, Rate 125 g/ha) | Bedstraw plant response rating ([2]; Preemergence, Rate 250 g/ha) | Bedstraw plant response rating ([2]; Preemergence, Rate 500 g/ha) | Plant response rating, Wild oats [3, 9] | Plant response rating, Wild oats [3, 10] | Wild oats plant response rating (0 to 10 scale) ([3]; Preemergence, Rate 125 g/ha) | Wild oats plant response rating [3, 12] | Wild oats plant response rating [3, 13] | Plant response rating, Wild oats [3, 14] | Plant response rating, Soybean [4, 9] | Plant response rating, Soybean [4, 10] | Soybean plant response rating (0 to 10 scale) ([4]; Preemergence, Rate 125 g/ha) | Soybean plant response rating [4, 12] | Soybean plant response rating [4, 13] | Plant response rating, Soybean [4, 14] | Plant response rating, Barnyardgrass (0 to 10 scale, 0 is no effect, 10 is complete control) [1, 15] | Plant response rating, Bedstraw [2, 10] | further results |
| --- | --- | --- | --- | --- | --- | --- | --- | --- | --- | --- | --- | --- | --- | --- | --- | --- | --- | --- | --- | --- | --- |
| CCOC(=O)C(C)N(C(=O)n1oc(=O)n(C)c1=O)c1ccc(F)cc1 (centres unmarked) [Compound 365] | 0 | 0 | 0 | 0 | 0 | 0 | 0 | 0 | 0 | 0 | 0 | 0 | 0 | 2 | 0 | 0 | 0 | 2 |  |  | Barnyardgrass plant response rating ([1]; Rate 1000 g/ha, scale 0 to 10 (0 no effect, 10 complete control)): 0; Plant response rating, Bedstraw [2, 8]: 0; Wild oats plant response rating [3, 11]: 0; Plant response rating, Wild oats [3, 8]: 0; Soybean plant response rating [4, 11]: 3; Plant response rating, Soybean [4, 8]: 0 |
| CC(C)N(C(=O)n1oc(=O)n(C)c1=O)c1ccc(F)cc1F [Compound 368] | 0 | 0 | 7 | 2 | 10 | 10 | 0 | 3 | 9 | 10 | 10 | 5 | 5 | 5 | 2 | 7 | 8 | 5 | 0 | 4 | Plant response rating, Bedstraw [2, 16]: 0; Bedstraw plant response rating ([2]; Rate 62 g/ha, Postemergence): 0; Plant response rating, Wild oats [3, 16]: 4; Wild oats plant response rating [3, 17]: 0; Plant response rating, Soybean [4, 16]: 0; Soybean plant response rating [4, 17]: 4 |
| CC(C)N(C(=O)n1oc(=O)n(N2C(C)CCCC2C)c1=O)c1ccc(F)cc1F (centres unmarked) [Compound 383] |  | 0 | 0 |  |  |  | 0 | 0 | 0 | 0 | 0 | 0 | 3 | 3 | 0 | 0 | 0 | 5 | 0 | 0 | Barnyardgrass plant response rating (0 to 10 scale, 0 is no effect, 10 is complete control) ([1]; Rate 125 g/ha, under heading Pre-emergence, flood test species, visual evaluation after twelve to sixteen days): 0; Plant response rating, Bedstraw [2, 9]: 0; Plant response rating, Bedstraw [2, 16]: 0; Plant response rating, Bedstraw [2, 14]: 0; Plant response rating, Wild oats [3, 16]: 0; Wild oats plant response rating [3, 17]: 0; Plant response rating, Soybean [4, 16]: 0; Soybean plant response rating [4, 17]: 2 |
